Assay [1] has as its system Herpes virus of the type I (HSV-I/Leningrad/248/88). Kind of assay: Effect on Herpes virus, cytopathogenic action on Vero cells. Format: cell-based, Herpes Simplex virus. The following applies: for Quantity of the unchanged cells (number of cells in 100 visual fields): Vero cells, 36 hours, cell control 10000; for percentage of protection of cells from virus: compared to the control of cell culture. Here is the method: An antiviral activity was determined with respect to Herpes virus of the type I (HSV-I/Leningrad/248/88) by means of commonly accepted method. Viruses were grown on a continuous culture of Vero cells that have been received from the Bank of Cell Cultures of the Institute of Cytology of the Russian Academy of Science.
A virus in a final concentration of […] and the claimed compounds dissolved in DMSO in final concentrations of 100, 10 and 1 mg/l were added to cells that were grown on the RPMI-1640 medium with 10% fetal calf serum and placed into wells of the 96-well plate. 5 separate wells were used for each of tested concentrations of an agent. The plate was incubated during 60 minutes at 38° C. in a CO2-incubator. After the incubation, the virus was removed and then a fresh medium containing claimed compounds in used concentrations was again introduced.
Results were evaluated basing on presence of cytopathogenic action on the cells after 36 hours of incubation at 38° C. in the CO2-incubator.
The next controls were used in the experiment: • 1. Control of cell culture (capability to grow properly) • 2. Control of the virus (evaluation of capability for reproduction) • 3. Control of an antiviral activity of an antiviral drug Acyclovir • 4. Control of compounds (toxicity of compounds) • 5. Control of a solvent (DMSO) for toxicity.
To estimate a cytopathic action of the virus, a quantity of the unchanged cells was calculated in 100 visual fields formed by a special net of an eyepiece of the inverted microscope.

A short description of assay [2]: Antiulcerous action, water immersion stress with immobilization. It is filed as in vivo, rats. The following applies: 20 mg/kg perorally. Here is the method:
Antiulcerous activity of substances was tested on a model of experimental water immersion stress with immobilization. […] After that, gastric mucous membrane was investigated, number and sizes of ulcers were counted, ulceration index was determined (an average sum of ulcer lengths per one animal in a group).

Assay [3] in a line: Hypoglycemic activity after glucose load. It is filed as in vivo, mice. The following applies: Glibenclamide I mg/kg. Here is the method: Test substance (100 mg/kg) was perorally administrated to fasted mice, and, immediately after that, solution of glucose (1000 mg/kg) was administrated subcutaneously. Glucose content in blood was determined in a hour by the orthotoluidine method. Reducing of glucose level by more than 20% relative to control animals indicated hypoglycemic properties. Glibenclamide (I mg/kg) was utilized as a reference agent.

Assay [4] concerns primary culture of human lymphocytes (IFN-α production). Kind of assay: Interferon-inducing activity in primary culture of human lymphocytes. Format: cell-based. Here is the method:
Interferon synthesis induction caused by the claimed compounds was conducted on a primary culture of human lymphocytes (it is these cells in a human organism that are the main producers of interferons). To obtain lymphocyte culture, fresh blood (within 12 hours after sampling) from healthy donors (not of group II) was used. To separate lymphocytes, heparinized blood obtained from healthy donor was centrifuged in a density gradient of ficoll-verografin of […] in order to extract a fraction of immunocompetent cells. This fraction was selected and diluted with the nutrient medium RPMI-1640, containing 5% of fetal calf serum, 0.3 mg/ml of L-glutamin, 100 un/ml of penicillin, and […] of streptomycin. The concentration of lymphocytes was considered after dying them with methylene blue and calculation of cell number in Goryaev chamber. Initial solutions of the claimed compounds were diluted with the nutrient medium RPMI-1640 so that the final concentrations of the compounds, which were obtained after introduction of lymphocyte suspension, constituted the raw: 100 μg/ml, 10 μg/ml, 1 μg/ml. The final concentration of lymphocytes in the induction mixture was 3×10^6 cell/ml.
In parallels to the test samples the following controls were done: • 1). Control of spontaneous production of interferons (IFN) by lymphocytes. • 2). […] Control of spontaneous production of interferons in presence of DMSO taken in an amount corresponding to the test samples.
Control and test samples were incubated for 24 hours at the temperature of 37° C. After incubation, the samples were centrifuged at 2,000 G to deposit cell elements, and IFN-containing supernatant was separate out of samples; then the supernatant was analyzed for the quantitative content of IFN. Cell deposition was resuspended in the previous volume of nutrient medium, coloured with vital dye trypan blue, and cell number was counted in the Goryaev chamber (as described above) to determine cytotoxic action of the compounds. The quantitative determination of content of IFN in control and test samples was conducted using the immunoenzyme test system Pro Con IF2 Plus, that is intended for determination of IFN-α, which is produced by TOO “Protein contour”. The solid-phase immunoenzyme method, utilizing horse radish peroxidase as an indicator enzyme, was used to determine the quantity of interferon in the samples. Activity of the bonded peroxidase was measured using an automatic photometer for microplates with a microprocessor at the wavelength of 450 nm.
Based on the obtained results, a calibrating curve was formed, which allows to obtain data expressed in international units (IU) of activity, using the microprocessor of the automatic photometer. The results of the analysis are expressed in IU of activity of IFN per ml in the given induction system, which contains 3×10^4 lymphocyte/ml. Each test and control point was investigated in four parallels.
Controls of immunoenzyme reaction: • 1. Control of DMSO with a nutrient medium. • 2. Control of system components (according to an instruction).
The obtained data were undergone a statistical analysis using t-criterion, and calculation of the confident interval of probability at p=0.05 was carried out. Coincidence of results in the parallel tests was analyzed.

In another assay the test system is C.trachomatis D323. Kind of assay: Action on Chlamydia trachomatis in cell culture. Format: cell-based. The following applies: 100 mg/l; for Number of unchanged cells: 48 hours, counted in 100 visual fields, cell control 8.000, infected cells 6.000. The method, then:
The antimicrobial activity of the claimed compounds was studied relative to C.trachomatis […], which is a standard strain from the collection of the chair of microbiology of St. Petersburg State Pavlov Medical University. […] Cell cultures McCoy and L929 obtained from the Institute of Cytology of RAS were used in this work. Cells were grown in flasks made of neutral glass in the medium RPMI-1640 with the addition of 10% of fetal calf serum. The test was performed in glass (non-toxic) flat-bottom flasks with cover glasses. The cells were introduced into the medium in the final concentration of […]. […] Simultaneously, tested compounds in a final concentration of 100 mg/l were added to the cells. The sample was centrifuged at 2400 G during 60 minutes at room temperature and incubated at 37° C. for 2 hours. […] The samples were doubled using the medium without cycloheximide so as to exclude its effect on the investigated compounds. The samples were incubated in a CO2-incubator for 48 hours. […] The effect of the action of substance was determined by analysis of the monolayer state and number of cells with CPI when compared with the control (cell culture infected with C.trachomatis […]); in doing so, the number of unchanged cells, that were counted in 100 visual fields obtained using the special net of the microscope eyepiece, was taken into consideration. […] Control of cell culture: morphology of cells and state of monolayer correspond to the given type of the cells; control of chlamydia growth in the cell culture: presence of CPI in the monolayer; control of action of standard antimicrobial agent: reduction of number of CPI in the monolayer as compared to the previous control; control of toxicity of the claimed compounds: toxicity is absent; control of action of solvents: toxic action on cells is absent.

Results on 16 molecules are retold here after patent US7074925B1, “N-substituted derivatives of 5-oxyiminobarbituric acid” (priority 1998, dated 2006).

Marks after values point to notes of the source that are not given here.

For the molecule `Nc1nc2c(ncn2COCCO)c(=O)[nH]1` [Acyclovir, reference compound], in assay [1] (Acyclovir), the “Quantity of the unchanged cells (number of cells in 100 visual fields)” value (from here on “Quantity of the unchanged cells”) is reported as 8000* and the “percentage of protection of cells from virus” value (from here on “percentage … from virus”) is on record as “(80%)**”.

On to `CN(C)CCCN1c2ccccc2Sc2ccc(Cl)cc21` [Chlorpromazine, reference compound], for which the “% of animals with ulcers” value in assay [2] (rats, 4 hours stress, control 100) worked out at 33%. Moreover, in assay [2] (versus control), the “% of reducing number of ulcers” value is recorded as −96% and the “% of reducing ulceration index” value is on record as −97%. This molecule had a Number of lesions in assay [2] (control 8.3 ± 2.5) of 0.3 ± 0.3. In assay [2] (control 10.5 ± 5.7), the ulceration index worked out at 0.3 ± 0.3.

Regarding `COc1ccc(Cl)cc1C(=O)NCCc1ccc(S(=O)(=O)NC(=O)NC2CCCCC2)cc1` [Glibenclamide, reference compound], the “% change of glucose relative to glucose control” value in assay [3] was −40%. Besides, the Glucose in blood in assay [3] (glucose 1000 mg/kg s.c., after one hour) was 4.95 ± 0.31 mmol/L.

On to `CC(C)(C)N1C(=O)NC(=O)C(=NO)C1=O` [III], for which, in assay [4] (substance 1 mg/l), the “Content of IFN in induction mixture after 24-hour incubation” value (“Content of IFN in induction mixture” below) worked out at 4.2 ± 0.8 IU/3 × 10^4 lymph./ml. Also, the “Content of IFN in induction mixture” value in assay [4] (substance 10 mg/l) is 23.5 ± 1.2 IU/3 × 10^4 lymph./ml. Also, the “Content of IFN in induction mixture” value in assay [4] (substance 100 mg/l) amounted to 65 ± 1.2 IU/3 × 10^4 lymph./ml. Also, in the assay on C.trachomatis D323, the “percentage of cell protection from infection” value (shortened to “percentage of cell protection”) was “(50%)” and the “Number of unchanged cells” value turned out to be 7.000. Moreover, in assay [1] (compound 100 μg/ml), the “Quantity of the unchanged cells” value is listed as 5000 and the “percentage … from virus” value is given as “(50%)”.

For the molecule `COc1ccc(CN2C(=O)NC(=O)C(=NO)C2=O)cc1` [XIII], in the assay on C.trachomatis D323, the “percentage of cell protection” value was “(50%)” and the “Number of unchanged cells” value stood at 7.000. Further, in assay [1] (compound 100 μg/ml), the “Quantity of the unchanged cells” value is recorded as 4500 and the “percentage … from virus” value is “(45%)”.

Turning to `O=C1NC(=O)N(Cc2ccc(F)cc2)C(=O)C1=NO` [XII], in the assay with C.trachomatis D323, the “percentage of cell protection” value was “(30%)” and the “Number of unchanged cells” value amounted to 6.600. In assay [1] (compound 100 μg/ml), the “Quantity of the unchanged cells” value was 4000 and the “percentage … from virus” value is on record as “(40%)”.

As to `O=C1NC(=O)N(Cc2ccccc2)C(=O)C1=NO` [XI], the “Content of IFN in induction mixture” value in assay [4] (substance 1 mg/l) is on record as 32.8 ± 1.0 IU/3 × 10^4 lymph./ml; in assay [4] (substance 10 mg/l), 53.5 ± 1.2 IU/3 × 10^4 lymph./ml; in assay [4] (substance 100 mg/l), 60 ± 1.8 IU/3 × 10^4 lymph./ml. The “Quantity of the unchanged cells” value in assay [1] (compound 100 μg/ml) is listed as 3500. In addition, in assay [1] (compound 100 μg/ml), the “percentage … from virus” value is “(35%)”.

With `O=C1NC(=S)N(c2ccc(Cl)cc2)C(=O)C1=NO` [XLVI], the entries for the “Content of IFN in induction mixture” value in assay [4] (substance 1 mg/l), in assay [4] (substance 10 mg/l) and in assay [4] (substance 100 mg/l) were 6.6 ± 0.8 IU/3 × 10^4 lymph./ml, 24.4 ± 1.4 IU/3 × 10^4 lymph./ml and 52.1 ± 1.8 IU/3 × 10^4 lymph./ml, respectively.

In the case of `CC(Cc1ccccc1)N1C(=O)NC(=O)C(=NO)C1=O` (stereo not shown) [XVII], the “Content of IFN in induction mixture” value was 6.2 ± 0.5 IU/3 × 10^4 lymph./ml in assay [4] (substance 1 mg/l), 13.0 ± 2.5 IU/3 × 10^4 lymph./ml in assay [4] (substance 10 mg/l) and 19.2 ± 1.2 IU/3 × 10^4 lymph./ml in assay [4] (substance 100 mg/l). Further, the “percentage of cell protection” value in the assay on C.trachomatis D323 was “(35%)”. Moreover, in the assay with C.trachomatis D323, the “Number of unchanged cells” value is recorded as 6.700.

On to `O=C1NC(=O)N(CCc2ccc(F)cc2)C(=O)C1=NO` [XV], for which, in assay [1] (compound 100 μg/ml), the “Quantity of the unchanged cells” value turned out to be 4000 and the “percentage … from virus” value is recorded as “(40%)”.

Regarding `O=C1NC(=O)N(c2cccc3ccccc23)C(=O)C1=NO` [XXXIV], in the assay on C.trachomatis D323, the “percentage of cell protection” value is “(35%)” and the “Number of unchanged cells” value stood at 6.700.

Take `C=CCN1C(=O)C(=NO)C(=O)NC1=S` [XXXIX]: in the assay with C.trachomatis D323, the “percentage of cell protection” value is given as “(65%)” and the “Number of unchanged cells” value is recorded as 7.300.

For the molecule `CCN1C(=O)C(=NO)C(=O)NC1=S` [XXXVI], the figures for the “Content of IFN in induction mixture” value in assay [4] (substance 1 mg/l), in assay [4] (substance 10 mg/l) and in assay [4] (substance 100 mg/l) were 5.2 ± 1.0 IU/3 × 10^4 lymph./ml, 6.8 ± 1.5 IU/3 × 10^4 lymph./ml and 26.0 ± 1.4 IU/3 × 10^4 lymph./ml, respectively.

For `CCOc1ccc(N2C(=O)NC(=O)C(=NO)C2=O)cc1` [XXX], in the assay on C.trachomatis D323, the “percentage of cell protection” value is reported as “(35%)” and the “Number of unchanged cells” value was 6.700. In assay [1] (compound 100 μg/ml), the “Quantity of the unchanged cells” value is 3000 and the “percentage … from virus” value is on record as “(30%)”.

In the case of `Cc1ccccc1N1C(=O)NC(=O)C(=NO)C1=O` [XX], in assay [1] (compound 100 μg/ml), the “Quantity of the unchanged cells” value was 3500 and the “percentage … from virus” value is on record as “(35%)”.

As to `O=C1NC(=O)N(CCC2=CCCCC2)C(=O)C1=NO` [X], the entries for the “Content of IFN in induction mixture” value in assay [4] (substance 1 mg/l), in assay [4] (substance 10 mg/l) and in assay [4] (substance 100 mg/l) were 8.6 ± 1.0 IU/3 × 10^4 lymph./ml, 11.0 ± 1.2 IU/3 × 10^4 lymph./ml and 30 ± 1.8 IU/3 × 10^4 lymph./ml, respectively.
